ChEMBL document CHEMBL5442175, “EUbOPEN Chemogenomics Library - PDSP Secondary Binding” (2024)
Where a name gives a salt, the structure may show the parent alone. Values belong to the compound of their own block, whether it stands above or below them.

How the values were obtained:
D(3) dopamine receptor = D(3) dopamine receptor (Homo sapiens, UniProt P35462); test: (§1) PDSP Secondary Binding target: DRD3 - Compounds are tested at 10 uM concentration, plate are incubated at room temperature in the dark for 90 minutes. Reaction are stopped by vacuum filtration onto 0.3% polyethyleneimine soaked filter mats using Filtermate harvester. Scintillation cocktail is then melted onto microwave-dried filters on a hot plate and the radio activity is counted in Microbia counter.
[1] = biological target: T1, 5-hydroxytryptamine receptor 2C (Homo sapiens, UniProt P28335); test: as §1, with “HTR2C” for “DRD3”
T1 sequence (P28335 whole entry): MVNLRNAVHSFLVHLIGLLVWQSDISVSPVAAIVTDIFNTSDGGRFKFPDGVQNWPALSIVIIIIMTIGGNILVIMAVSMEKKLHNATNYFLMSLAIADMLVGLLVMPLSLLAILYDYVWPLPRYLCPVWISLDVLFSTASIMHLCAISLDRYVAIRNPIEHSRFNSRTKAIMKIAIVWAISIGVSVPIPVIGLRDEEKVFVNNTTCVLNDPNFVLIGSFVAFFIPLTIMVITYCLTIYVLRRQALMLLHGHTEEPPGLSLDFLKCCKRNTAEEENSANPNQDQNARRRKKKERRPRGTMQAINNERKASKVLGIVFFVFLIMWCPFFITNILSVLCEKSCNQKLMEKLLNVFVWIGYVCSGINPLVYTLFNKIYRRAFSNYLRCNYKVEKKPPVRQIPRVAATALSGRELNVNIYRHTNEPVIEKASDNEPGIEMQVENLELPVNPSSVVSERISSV

[2] = biological target: Kappa-type opioid receptor (Homo sapiens, UniProt P41145); test: as §1, with “OPRK1” for “DRD3”
[3] = biological target: T2, Alpha-2C adrenergic receptor (Homo sapiens, UniProt P18825); test: as §1, with “ADRA2C” for “DRD3”
T2 sequence (P18825 whole entry): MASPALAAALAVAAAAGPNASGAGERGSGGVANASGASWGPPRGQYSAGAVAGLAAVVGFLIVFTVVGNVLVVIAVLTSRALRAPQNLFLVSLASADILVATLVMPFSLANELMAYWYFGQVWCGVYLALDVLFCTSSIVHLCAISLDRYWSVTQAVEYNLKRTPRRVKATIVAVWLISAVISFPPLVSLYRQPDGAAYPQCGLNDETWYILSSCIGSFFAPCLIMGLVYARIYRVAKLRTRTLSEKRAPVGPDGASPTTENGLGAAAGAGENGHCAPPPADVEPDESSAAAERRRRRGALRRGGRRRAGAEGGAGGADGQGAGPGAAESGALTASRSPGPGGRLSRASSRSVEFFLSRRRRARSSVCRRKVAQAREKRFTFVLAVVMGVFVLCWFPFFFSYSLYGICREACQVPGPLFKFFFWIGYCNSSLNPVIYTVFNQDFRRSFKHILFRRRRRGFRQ

[4] = biological target: 5-hydroxytryptamine receptor 2A (Homo sapiens, UniProt P28223); test: as §1, with “HTR2A” for “DRD3”
[5] = biological target: 5-hydroxytryptamine receptor 7 (Homo sapiens, UniProt P34969); test: as §1, with “HTR7” for “DRD3”
[6] = biological target: 5-hydroxytryptamine receptor 2B (Homo sapiens, UniProt P41595); test: as §1, with “HTR2B” for “DRD3”
Translocator protein = Translocator protein (Homo sapiens, UniProt P30536); test: as §1, with “TSPO” for “DRD3”
[7] = biological target: 5-hydroxytryptamine receptor 5A (Homo sapiens, UniProt P47898); test: as §1, with “HTR5A” for “DRD3”
[8] = biological target: Sigma non-opioid intracellular receptor 1 (Homo sapiens, UniProt Q99720); test: as §1, with “SIGMAR1” for “DRD3”
[9] = biological target: T3, Alpha-2B adrenergic receptor (Homo sapiens, UniProt P18089); test: as §1, with “ADRA2B” for “DRD3”
T3 sequence (P18089 whole entry): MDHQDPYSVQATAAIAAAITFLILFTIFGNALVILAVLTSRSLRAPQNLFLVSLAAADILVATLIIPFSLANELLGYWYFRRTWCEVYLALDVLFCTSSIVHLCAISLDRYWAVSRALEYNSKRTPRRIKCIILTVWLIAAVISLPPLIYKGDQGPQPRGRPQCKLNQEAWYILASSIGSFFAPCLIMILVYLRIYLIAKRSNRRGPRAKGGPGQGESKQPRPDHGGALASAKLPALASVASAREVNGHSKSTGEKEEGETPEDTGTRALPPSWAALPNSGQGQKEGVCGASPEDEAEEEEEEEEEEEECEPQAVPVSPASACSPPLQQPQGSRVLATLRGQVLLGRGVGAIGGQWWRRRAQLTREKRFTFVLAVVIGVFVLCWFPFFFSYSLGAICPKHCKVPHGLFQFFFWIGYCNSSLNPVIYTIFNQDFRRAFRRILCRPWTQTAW

[10] = biological target: T4, Alpha-1B adrenergic receptor (Homo sapiens, UniProt P35368); test: as §1, with “ADRA1B” for “DRD3”
T4 sequence (P35368 whole entry): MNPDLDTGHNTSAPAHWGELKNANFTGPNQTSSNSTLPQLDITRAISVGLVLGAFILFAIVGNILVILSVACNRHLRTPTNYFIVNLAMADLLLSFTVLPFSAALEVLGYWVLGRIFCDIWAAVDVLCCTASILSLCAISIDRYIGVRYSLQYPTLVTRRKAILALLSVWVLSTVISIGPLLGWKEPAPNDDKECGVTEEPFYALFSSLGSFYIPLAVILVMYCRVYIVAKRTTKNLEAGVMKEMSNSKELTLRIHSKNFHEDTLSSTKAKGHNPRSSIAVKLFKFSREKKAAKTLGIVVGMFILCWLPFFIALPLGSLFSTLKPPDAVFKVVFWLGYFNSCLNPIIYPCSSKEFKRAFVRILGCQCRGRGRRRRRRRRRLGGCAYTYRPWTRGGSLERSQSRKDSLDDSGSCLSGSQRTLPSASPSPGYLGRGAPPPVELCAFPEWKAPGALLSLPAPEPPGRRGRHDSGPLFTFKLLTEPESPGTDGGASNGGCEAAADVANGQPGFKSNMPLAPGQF

Mu-type opioid receptor = Mu-type opioid receptor (Homo sapiens, UniProt P35372); test: as §1, with “OPRM1” for “DRD3”
[11] = biological target: Sodium-dependent dopamine transporter (Homo sapiens, UniProt Q01959); test: as §1, with “SLC6A3” for “DRD3”
[12] = biological target: Sigma intracellular receptor 2 (Homo sapiens, UniProt Q5BJF2); test: as §1, with “TMEM97” for “DRD3”
[13] = biological target: 5-hydroxytryptamine receptor 1D (Homo sapiens, UniProt P28221); test: as §1, with “HTR1D” for “DRD3”
D(4) dopamine receptor = biological target: T5, D(4) dopamine receptor (Homo sapiens, UniProt P21917); test: as §1, with “DRD4” for “DRD3”
T5 sequence (P21917 whole entry): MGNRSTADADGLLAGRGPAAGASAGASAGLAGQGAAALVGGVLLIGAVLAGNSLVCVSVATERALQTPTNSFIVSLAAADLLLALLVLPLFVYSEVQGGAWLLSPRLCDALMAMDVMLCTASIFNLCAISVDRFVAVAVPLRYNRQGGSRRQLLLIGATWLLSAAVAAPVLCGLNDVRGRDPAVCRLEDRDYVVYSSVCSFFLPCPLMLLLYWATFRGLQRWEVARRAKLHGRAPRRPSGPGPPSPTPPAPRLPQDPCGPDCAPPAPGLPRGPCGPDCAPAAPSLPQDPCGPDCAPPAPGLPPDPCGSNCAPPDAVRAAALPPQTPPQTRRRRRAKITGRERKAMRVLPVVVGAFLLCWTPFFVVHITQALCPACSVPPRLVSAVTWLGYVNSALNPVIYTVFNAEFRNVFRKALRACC

[14] = biological target: T6, Muscarinic acetylcholine receptor M5 (Homo sapiens, UniProt P08912); test: as §1, with “CHRM5” for “DRD3”
T6 sequence (P08912 whole entry): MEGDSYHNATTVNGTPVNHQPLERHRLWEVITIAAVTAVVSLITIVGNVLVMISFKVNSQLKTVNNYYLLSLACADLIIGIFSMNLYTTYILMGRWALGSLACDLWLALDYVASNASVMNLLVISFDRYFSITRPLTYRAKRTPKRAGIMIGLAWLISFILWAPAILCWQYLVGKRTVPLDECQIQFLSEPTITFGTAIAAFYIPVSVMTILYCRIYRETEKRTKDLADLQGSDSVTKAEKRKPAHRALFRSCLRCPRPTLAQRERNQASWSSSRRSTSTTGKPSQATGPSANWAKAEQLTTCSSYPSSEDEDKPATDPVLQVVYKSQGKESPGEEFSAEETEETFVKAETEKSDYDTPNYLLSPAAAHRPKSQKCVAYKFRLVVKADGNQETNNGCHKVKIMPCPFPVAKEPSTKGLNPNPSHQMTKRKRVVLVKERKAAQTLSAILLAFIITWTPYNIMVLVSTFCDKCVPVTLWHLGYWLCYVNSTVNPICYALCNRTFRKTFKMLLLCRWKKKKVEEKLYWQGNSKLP

5-hydroxytryptamine receptor 5A, sequence (P47898 whole entry): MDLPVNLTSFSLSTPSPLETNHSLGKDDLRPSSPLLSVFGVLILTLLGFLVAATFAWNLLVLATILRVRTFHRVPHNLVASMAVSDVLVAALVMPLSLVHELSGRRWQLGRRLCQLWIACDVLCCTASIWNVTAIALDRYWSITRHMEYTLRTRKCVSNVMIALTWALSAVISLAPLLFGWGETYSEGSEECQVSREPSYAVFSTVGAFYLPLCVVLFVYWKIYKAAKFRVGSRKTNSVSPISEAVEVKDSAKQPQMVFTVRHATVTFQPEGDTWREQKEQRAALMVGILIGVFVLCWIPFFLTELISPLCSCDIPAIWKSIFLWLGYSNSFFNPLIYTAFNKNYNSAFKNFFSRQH
Sigma intracellular receptor 2, sequence (Q5BJF2 whole entry): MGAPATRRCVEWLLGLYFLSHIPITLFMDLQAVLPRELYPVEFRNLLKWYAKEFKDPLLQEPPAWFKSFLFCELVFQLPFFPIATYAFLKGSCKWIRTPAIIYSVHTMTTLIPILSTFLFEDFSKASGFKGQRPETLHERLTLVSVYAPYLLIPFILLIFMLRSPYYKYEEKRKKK
Translocator protein, sequence (P30536 whole entry): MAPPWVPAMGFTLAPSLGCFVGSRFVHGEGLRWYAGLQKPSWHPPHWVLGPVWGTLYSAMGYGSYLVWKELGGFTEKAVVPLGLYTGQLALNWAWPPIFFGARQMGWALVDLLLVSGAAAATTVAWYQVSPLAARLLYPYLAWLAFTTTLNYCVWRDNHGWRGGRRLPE
Kappa-type opioid receptor, sequence (P41145 whole entry): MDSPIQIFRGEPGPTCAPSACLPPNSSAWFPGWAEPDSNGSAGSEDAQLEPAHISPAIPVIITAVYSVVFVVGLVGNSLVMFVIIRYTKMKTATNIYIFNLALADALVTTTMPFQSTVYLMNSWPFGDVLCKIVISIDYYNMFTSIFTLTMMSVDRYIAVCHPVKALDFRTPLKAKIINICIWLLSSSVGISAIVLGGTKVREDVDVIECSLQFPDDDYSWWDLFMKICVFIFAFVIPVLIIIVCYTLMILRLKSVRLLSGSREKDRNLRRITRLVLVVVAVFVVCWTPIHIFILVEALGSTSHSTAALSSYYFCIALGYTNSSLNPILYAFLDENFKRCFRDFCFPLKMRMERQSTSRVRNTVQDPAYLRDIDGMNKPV
5-hydroxytryptamine receptor 2B, sequence (P41595 whole entry): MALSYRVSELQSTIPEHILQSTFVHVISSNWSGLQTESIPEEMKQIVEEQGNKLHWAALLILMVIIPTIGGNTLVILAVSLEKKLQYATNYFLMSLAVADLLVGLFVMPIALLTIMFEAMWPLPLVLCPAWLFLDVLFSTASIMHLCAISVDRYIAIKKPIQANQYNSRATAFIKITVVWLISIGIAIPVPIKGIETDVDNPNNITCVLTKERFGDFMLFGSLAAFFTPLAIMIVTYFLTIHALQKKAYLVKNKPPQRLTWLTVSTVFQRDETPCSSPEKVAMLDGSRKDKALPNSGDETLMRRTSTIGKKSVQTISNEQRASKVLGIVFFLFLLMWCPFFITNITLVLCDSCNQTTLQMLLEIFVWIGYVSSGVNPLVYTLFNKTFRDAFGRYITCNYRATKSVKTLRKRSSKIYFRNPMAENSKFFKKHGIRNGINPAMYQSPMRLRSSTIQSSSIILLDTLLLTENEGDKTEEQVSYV
Sigma non-opioid intracellular receptor 1, sequence (Q99720 whole entry): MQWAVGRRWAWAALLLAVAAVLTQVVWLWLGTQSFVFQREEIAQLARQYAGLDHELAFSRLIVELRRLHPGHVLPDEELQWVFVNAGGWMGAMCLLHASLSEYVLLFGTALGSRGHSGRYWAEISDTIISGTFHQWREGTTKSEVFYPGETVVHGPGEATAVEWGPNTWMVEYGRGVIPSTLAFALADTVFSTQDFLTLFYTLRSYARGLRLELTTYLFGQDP
Sodium-dependent dopamine transporter, sequence (Q01959 whole entry): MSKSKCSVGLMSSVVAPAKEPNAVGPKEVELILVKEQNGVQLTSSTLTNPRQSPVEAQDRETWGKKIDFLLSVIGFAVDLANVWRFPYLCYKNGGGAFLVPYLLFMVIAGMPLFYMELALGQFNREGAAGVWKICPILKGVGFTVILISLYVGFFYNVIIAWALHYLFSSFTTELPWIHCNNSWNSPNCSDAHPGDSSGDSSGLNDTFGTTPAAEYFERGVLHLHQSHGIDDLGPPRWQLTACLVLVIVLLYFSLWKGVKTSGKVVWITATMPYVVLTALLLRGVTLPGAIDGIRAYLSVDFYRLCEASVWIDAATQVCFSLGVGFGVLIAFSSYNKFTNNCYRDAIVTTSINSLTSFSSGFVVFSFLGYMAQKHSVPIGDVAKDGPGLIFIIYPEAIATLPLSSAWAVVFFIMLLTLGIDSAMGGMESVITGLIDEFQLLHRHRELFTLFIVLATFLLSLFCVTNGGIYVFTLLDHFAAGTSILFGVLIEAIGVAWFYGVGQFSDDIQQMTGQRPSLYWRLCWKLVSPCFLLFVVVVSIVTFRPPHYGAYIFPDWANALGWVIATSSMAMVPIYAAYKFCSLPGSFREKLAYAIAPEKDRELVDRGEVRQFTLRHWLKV
Mu-type opioid receptor, sequence (P35372 whole entry): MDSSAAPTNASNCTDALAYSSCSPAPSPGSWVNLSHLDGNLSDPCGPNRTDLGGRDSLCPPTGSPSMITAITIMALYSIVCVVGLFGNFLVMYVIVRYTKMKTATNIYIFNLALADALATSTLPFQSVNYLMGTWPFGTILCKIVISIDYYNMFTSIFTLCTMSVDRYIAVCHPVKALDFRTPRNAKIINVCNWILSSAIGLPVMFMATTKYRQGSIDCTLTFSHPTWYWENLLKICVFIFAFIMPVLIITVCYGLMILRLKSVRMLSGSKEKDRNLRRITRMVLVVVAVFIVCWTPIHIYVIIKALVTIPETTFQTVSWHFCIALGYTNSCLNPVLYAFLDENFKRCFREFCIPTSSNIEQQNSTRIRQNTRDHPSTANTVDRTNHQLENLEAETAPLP
D(3) dopamine receptor, sequence (P35462 whole entry): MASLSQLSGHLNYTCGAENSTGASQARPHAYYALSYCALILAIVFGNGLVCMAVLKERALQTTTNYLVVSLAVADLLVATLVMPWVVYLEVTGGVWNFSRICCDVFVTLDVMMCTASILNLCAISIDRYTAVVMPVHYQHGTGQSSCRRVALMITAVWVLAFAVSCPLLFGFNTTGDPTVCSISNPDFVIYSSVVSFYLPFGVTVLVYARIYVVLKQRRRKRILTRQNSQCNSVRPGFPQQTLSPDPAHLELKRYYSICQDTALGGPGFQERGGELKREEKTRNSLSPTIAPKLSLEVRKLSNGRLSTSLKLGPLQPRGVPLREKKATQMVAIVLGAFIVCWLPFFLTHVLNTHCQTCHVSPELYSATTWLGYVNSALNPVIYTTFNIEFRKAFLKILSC
5-hydroxytryptamine receptor 2A, sequence (P28223 whole entry): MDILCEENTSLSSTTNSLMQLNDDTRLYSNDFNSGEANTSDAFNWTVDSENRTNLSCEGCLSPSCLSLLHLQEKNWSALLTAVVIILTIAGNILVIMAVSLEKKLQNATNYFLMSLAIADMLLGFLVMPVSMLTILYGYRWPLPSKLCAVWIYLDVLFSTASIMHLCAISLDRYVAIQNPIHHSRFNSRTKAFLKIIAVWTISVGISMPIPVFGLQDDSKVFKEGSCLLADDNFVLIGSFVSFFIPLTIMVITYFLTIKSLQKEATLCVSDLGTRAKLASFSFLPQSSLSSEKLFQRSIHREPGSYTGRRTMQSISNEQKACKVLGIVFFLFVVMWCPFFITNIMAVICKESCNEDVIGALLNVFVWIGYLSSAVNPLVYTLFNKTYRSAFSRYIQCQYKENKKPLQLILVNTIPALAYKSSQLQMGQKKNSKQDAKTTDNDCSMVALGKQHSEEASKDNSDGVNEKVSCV
5-hydroxytryptamine receptor 7, sequence (P34969 whole entry): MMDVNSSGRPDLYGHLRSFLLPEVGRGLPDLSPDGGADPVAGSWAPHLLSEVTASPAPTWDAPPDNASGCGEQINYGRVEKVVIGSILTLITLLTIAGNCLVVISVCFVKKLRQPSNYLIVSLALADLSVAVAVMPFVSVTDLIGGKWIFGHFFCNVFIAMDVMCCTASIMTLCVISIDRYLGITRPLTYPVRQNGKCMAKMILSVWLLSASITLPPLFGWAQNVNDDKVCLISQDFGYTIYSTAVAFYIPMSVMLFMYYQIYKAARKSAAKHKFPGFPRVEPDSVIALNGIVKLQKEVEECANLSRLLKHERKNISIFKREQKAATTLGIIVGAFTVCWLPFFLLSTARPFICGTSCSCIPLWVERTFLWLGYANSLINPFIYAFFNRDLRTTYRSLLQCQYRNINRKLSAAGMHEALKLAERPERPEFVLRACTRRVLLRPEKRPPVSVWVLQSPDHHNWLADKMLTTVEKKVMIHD
5-hydroxytryptamine receptor 1D, sequence (P28221 whole entry): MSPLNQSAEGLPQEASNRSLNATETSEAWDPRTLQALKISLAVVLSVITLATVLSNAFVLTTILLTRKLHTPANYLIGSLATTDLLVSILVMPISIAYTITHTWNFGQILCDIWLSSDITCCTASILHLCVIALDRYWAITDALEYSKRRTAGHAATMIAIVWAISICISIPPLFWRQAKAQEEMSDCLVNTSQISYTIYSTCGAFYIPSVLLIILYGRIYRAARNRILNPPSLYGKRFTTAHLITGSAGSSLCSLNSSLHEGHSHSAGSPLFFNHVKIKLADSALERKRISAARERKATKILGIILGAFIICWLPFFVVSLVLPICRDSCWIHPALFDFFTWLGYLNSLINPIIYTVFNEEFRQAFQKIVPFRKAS

SMILES: CNc1nc(NCc2ccc(NS(C)(=O)=O)cc2Cl)cc(-c2ccccn2)n1
Ki (D(3) dopamine receptor): 1020 nM
Ki [1]: 2220 nM
Ki [2]: 998 nM
Ki [3]: 1720 nM
Ki [4]: 2120 nM
Ki [5]: 803 nM
Ki [6]: 647 nM
Ki (Translocator protein): 1660 nM
Ki [7]: 2110 nM
Ki [8]: 365 nM

SMILES: C[C@H](NC[C@H](O)CP(=O)(O)CC1CCCCC1)c1ccc(Cl)c(Cl)c1
Ki (Mu-type opioid receptor): 1280 nM
Ki [2]: 1110 nM
Ki [11]: 520 nM

SMILES: CN(C)C(=O)C(CCN1CCC(O)(c2ccc(Cl)cc2)CC1)(c1ccccc1)c1ccccc1 [LOPERAMIDE HYDROCHLORIDE]
Ki [12]: 36.7 nM
Ki [13]: 2600 nM
Ki [11]: 1410 nM
Ki [6]: 362 nM
Ki (D(4) dopamine receptor): 1460 nM
Ki [10]: 3690 nM
Ki [8]: 169 nM

SMILES: COc1cccc(-c2c(C)n(Cc3c(F)cccc3C(F)(F)F)c(=O)n(C[C@H](NCCCC(=O)O)c3ccccc3)c2=O)c1F [ELAGOLIX SODIUM]
Ki [2]: 2380 nM

SMILES: CCc1cc2c(c(CC)n1)CCC(=O)N2Cc1ccc(-c2ccccc2-c2nnn[nH]2)cc1
Ki (D(3) dopamine receptor): 270 nM
Ki (Mu-type opioid receptor): 6270 nM
Ki (D(4) dopamine receptor): 545 nM

SMILES: O=C(Cc1ccc(Cl)c(Cl)c1)N1CCCC[C@H]1CN1CCCC1
Ki [12]: 37 nM
Ki [2]: 0.591 nM
Ki [11]: 4860 nM
Ki (D(4) dopamine receptor): 2030 nM
Ki [8]: 11.7 nM

SMILES: CC(C)NCC(O)COc1cccc2[nH]ccc12 (stereo unspecified) [PINDOLOL]
Ki [12]: 3320 nM
Ki (D(4) dopamine receptor): 1660 nM
Ki [7]: 7050 nM

SMILES: Cc1ccccc1N1CCN(S(=O)(=O)C[C@]23CC[C@H](C[C@@H]2NC(=O)[C@@H](N)CCS(C)(=O)=O)C3(C)C)CC1
Ki [12]: 309 nM
Ki [2]: 4.03 nM
Ki [8]: 70.1 nM

SMILES: CCCCN(CCCC)C(=O)CN1C[C@@H](c2ccc3c(c2)OCO3)[C@H](C(=O)O)[C@H]1c1ccc(OC)cc1
Ki (D(4) dopamine receptor): 1910 nM
Ki (Translocator protein): 184 nM
Ki [8]: 2810 nM

Other lines, results leading:

Ki [6]: 2680 nM
Ki [8]: 5780 nM
SMILES: CCc1cc(C(C)=O)c(O)cc1OCCCCCC(C)(C)c1nn[nH]n1 [LY-255283]

Ki [3]: 386 nM
Ki [9]: 235 nM
SMILES: NC[C@H](O)c1ccc(O)c(O)c1

Ki [6]: 844 nM
Ki [10]: > 10000 nM
SMILES: COc1cc2c(CCNC(C)=O)c[nH]c2cc1Cl

Ki (Mu-type opioid receptor): 1790 nM
Ki (Translocator protein): > 10000 nM
Ki [7]: 800 nM
Ki [8]: 2970 nM
SMILES: COc1cc2nc(N3CCN(C(=O)c4ccco4)CC3)nc(N)c2cc1OC [PRAZOSIN HYDROCHLORIDE]

Ki [2]: 2120 nM
Ki (D(4) dopamine receptor): 199 nM
Ki [8]: 2260 nM
SMILES: c1ccc(N2CCN(Cc3nc4ccccc4[nH]3)CC2)nc1

Ki [14]: 5230 nM
Ki (Mu-type opioid receptor): > 10000 nM
Ki (D(4) dopamine receptor): > 10000 nM
SMILES: O=C1N/C(=N/c2ccccc2F)S/C1=C\c1ccc(C(=O)O)cc1

Ki [6]: 656 nM
Ki [8]: 908 nM
SMILES: Cc1c(C(=O)NC2CCCCC2)sc2nc3ccc(N)cc3n12
